ChEMBL document CHEMBL4052645, “Discovery of potent and efficacious pyrrolopyridazines as dual JAK1/3 inhibitors” (Bioorg Med Chem Lett, 2017)
Values after ≈ are worked out from the molar mass of the structure shown. Active and inactive are the calls of the source. The rule behind the calls is not given here.

Columns and labels:
[1] = Selectivity ratio of IC50 for JAK2 dependent EPO-induced STAT5A phosphorylation in human TF1 cells to IC50 for JAK1/JAK3 dependent IL2-induced STAT3 phosphorylation in human PBMC derived T-cells
[2] = molecular target: Voltage-gated inwardly rectifying potassium channel KCNH2 (Homo sapiens, UniProt Q12809); assay: Inhibition of human ERG by patch clamp method
Cytochrome P450 3A4 = Cytochrome P450 3A4 (Homo sapiens, UniProt P08684); assay: Inhibition of CYP3A4 (unknown origin); type: ADME
[3] = Metabolic stability in mouse liver microsomes assessed as compound remaining after 10 mins; type: ADME, microsome; conditions: read-out: Stability
[4] = Protein binding in mouse plasma at 10 mg/kg, po; type: ADME, organism-based; conditions: read-out: PPB (converted)
[5] = Cmax in mouse at 10 mg/kg, po after 24 hrs; type: ADME, organism-based; set-up: dose 10 mg/kg, route oral; conditions: in vivo
[6] = Cmin in mouse at 10 mg/kg, po after 24 hrs; type: ADME, organism-based; conditions: in vivo, read-out: Cmin
[7] = molecular target: Nuclear receptor subfamily 1 group I member 2 (Homo sapiens, UniProt O75469); assay: Activation of PXR (unknown origin); type: ADME
Homo sapiens = species on record: Homo sapiens; assay: Inhibition of calcium channel (unknown origin) at 10 uM by patch clamp assay
[8] = Protein binding in rat plasma; type: ADME, cell-free; conditions: read-out: PPB (converted)
[9] = Aqueous solubility of compound at pH 6.5; type: physicochemical
[10] = Cmax in BALB/c mouse at 10 mg/kg, po; type: ADME, organism-based; set-up: dose 10 mg/kg, route oral; conditions: in vivo
[11] = Oral bioavailability in BALB/c mouse at 10 mg/kg; type: ADME, organism-based; conditions: in vivo
[12] = AUC in BALB/c mouse at 2 mg/kg, iv; type: ADME, organism-based; conditions: in vivo
[13] = Half life in BALB/c mouse at 2 mg/kg, iv; type: ADME, organism-based; conditions: in vivo
[14] = Tmax in Sprague-Dawley rat at 10 mg/kg, po; type: ADME, organism-based; conditions: in vivo
[15] = AUC in Sprague-Dawley rat at 10 mg/kg, po; type: ADME, organism-based; conditions: in vivo
[16] = Clearance in Sprague-Dawley rat at 2 mg/kg, iv; type: ADME, organism-based; conditions: in vivo
Oryctolagus cuniculus = assay: Cardiotoxicity in rabbit assessed as decrease in mean arterial blood pressure at >3 mg/kg; type: toxicity, organism-based; conditions: in vivo
Rattus norvegicus [17] = assay: Cardiotoxicity in rat assessed as decrease in blood pressure at 30 mg/kg, po; type: toxicity, organism-based; set-up: scale not given: the % may be the effect or the level left; conditions: in vivo
Rattus norvegicus [18] = assay: Toxicity in rat assessed as mortality at 200 mg/kg; type: organism-based; conditions: in vivo
[19] = molecular target: Rho-associated protein kinase 1 (Homo sapiens, UniProt Q13464); assay: Inhibition of Rho-associated protein kinase 1 (unknown origin)
[20] = molecular target: Ephrin type-B receptor 2 (Homo sapiens) (UniProt P29323); assay: Inhibition of wild-type human partial length EPHB2 (I597 to L902 residues) expressed in bacterial expression system assessed as residual activity at 50 nM by Kinomescan method relative to control
[21] = molecular target: Mitogen-activated protein kinase kinase kinase 1 (Homo sapiens) (UniProt Q13233); assay: Inhibition of wild-type human partial length MAP3K1 (L1202 to W1512 residues) expressed in mammalian expression system assessed as residual activity at 50 nM by Kinomescan method relative to control
[22] = molecular target: Myosin light chain kinase family member 4 (Homo sapiens) (UniProt Q86YV6); assay: Inhibition of wild-type human partial length SGK085 (V79 to S380 residues) expressed in bacterial expression system assessed as residual activity at 50 nM by Kinomescan method relative to control
[23] = molecular target: Serine/threonine-protein kinase 16 (Homo sapiens) (UniProt O75716); assay: Inhibition of wild-type human partial length STK16 (G11 to I305 residues) expressed in bacterial expression system assessed as residual activity at 50 nM by Kinomescan method relative to control
[24] = molecular target: Casein kinase I isoform alpha (Homo sapiens) (UniProt P48729); assay: Inhibition of wild-type human partial length CK1A (M1 to L450 residues) expressed in mammalian expression system assessed as residual activity at 50 nM by Kinomescan method relative to control
[25] = molecular target: Dual specificity tyrosine-phosphorylation-regulated kinase 1B (Homo sapiens) (UniProt Q9Y463); assay: Inhibition of wild-type human full length DYRK1B (M1 to S629 residues) expressed in bacterial expression system assessed as residual activity at 50 nM by Kinomescan method relative to control
[26] = molecular target: Tyrosine-protein kinase Lyn (Homo sapiens) (UniProt P07948); assay: Inhibition of wild-type human partial length LYN (C219 to Q511 residues) expressed in bacterial expression system assessed as residual activity at 50 nM by Kinomescan method relative to control
[27] = molecular target: Serine/threonine-protein kinase NIM1 (Homo sapiens) (UniProt Q8IY84); assay: Inhibition of wild-type human partial length NIM1 (Q44 to N355 residues) expressed in mammalian expression system assessed as residual activity at 50 nM by Kinomescan method relative to control
[28] = tested on: Casein kinase I isoform alpha-like; assay: Inhibition of CK1A2 (unknown origin) assessed as residual activity at 50 nM by Kinomescan method relative to control; conditions: Homo sapiens
[29] = tested on: Ribosomal protein S6 kinase alpha-2; assay: Inhibition of wild-type human partial length N-terminal RSK3 kinase domain 1 (M1 to Q385 residues) expressed in bacterial expression system assessed as residual activity at 50 nM by Kinomescan method relative to control
[30] = tested on: Ribosomal protein S6 kinase alpha-2; assay: Inhibition of wild-type human partial length C-terminal RSK3 kinase domain 2 (V403 to K700 residues) expressed in bacterial expression system assessed as residual activity at 50 nM by Kinomescan method relative to control
[31] = Oral bioavailability in mouse; type: ADME, organism-based; conditions: in vivo
Mus musculus [32] = species on record: Mus musculus; assay: Clearance of compound in mouse relative to hepatic blood flow; type: ADME; conditions: in vivo
[33] = Clearance of compound in mouse; type: ADME, organism-based; conditions: in vivo
[34] = Drug concentration in mouse after 24 hrs; type: ADME; conditions: in vivo, read-out: Drug uptake
Mus musculus [35] = assay: Antiarthritic activity in collagen-induced arthritis mouse model assessed as reduction in inflammation at 2 mg/kg, po qd measured up to 41 days; type: functional, organism-based
[36] = Drug concentration in mouse at 2 mg/kg, po qd after 24 hrs; type: ADME, organism-based; conditions: in vivo, read-out: Drug uptake
Mus musculus [37] = assay: Antiarthritic activity in collagen-induced mouse model assessed as […] at 10 mg/kg, po qd up to 41 days; type: functional, organism-based
Mus musculus [38] = assay: Antiarthritic activity in collagen-induced mouse model assessed as […] at 2 mg/kg, po qd up to 41 days; type: functional, organism-based
Mus musculus [39] = assay: Toxicity in collagen-induced arthritis mouse model at 50 mg/kg, po qd; type: organism-based; conditions: in vivo
[40] = tested on: Phosphatidylinositol 4,5-bisphosphate 3-kinase catalytic subunit alpha isoform (Homo sapiens), P42336 [H1047L]; assay: Inhibition of human partial length PIK3CA H1047L mutant (R108 to N1068 residues) expressed in mammalian expression system assessed as residual activity at 50 nM by Kinomescan method relative to control
[41] = Protein binding in human serum; type: ADME, cell-free; conditions: read-out: PB (converted)

Voltage-gated inwardly rectifying potassium channel KCNH2, sequence (Q12809 whole entry): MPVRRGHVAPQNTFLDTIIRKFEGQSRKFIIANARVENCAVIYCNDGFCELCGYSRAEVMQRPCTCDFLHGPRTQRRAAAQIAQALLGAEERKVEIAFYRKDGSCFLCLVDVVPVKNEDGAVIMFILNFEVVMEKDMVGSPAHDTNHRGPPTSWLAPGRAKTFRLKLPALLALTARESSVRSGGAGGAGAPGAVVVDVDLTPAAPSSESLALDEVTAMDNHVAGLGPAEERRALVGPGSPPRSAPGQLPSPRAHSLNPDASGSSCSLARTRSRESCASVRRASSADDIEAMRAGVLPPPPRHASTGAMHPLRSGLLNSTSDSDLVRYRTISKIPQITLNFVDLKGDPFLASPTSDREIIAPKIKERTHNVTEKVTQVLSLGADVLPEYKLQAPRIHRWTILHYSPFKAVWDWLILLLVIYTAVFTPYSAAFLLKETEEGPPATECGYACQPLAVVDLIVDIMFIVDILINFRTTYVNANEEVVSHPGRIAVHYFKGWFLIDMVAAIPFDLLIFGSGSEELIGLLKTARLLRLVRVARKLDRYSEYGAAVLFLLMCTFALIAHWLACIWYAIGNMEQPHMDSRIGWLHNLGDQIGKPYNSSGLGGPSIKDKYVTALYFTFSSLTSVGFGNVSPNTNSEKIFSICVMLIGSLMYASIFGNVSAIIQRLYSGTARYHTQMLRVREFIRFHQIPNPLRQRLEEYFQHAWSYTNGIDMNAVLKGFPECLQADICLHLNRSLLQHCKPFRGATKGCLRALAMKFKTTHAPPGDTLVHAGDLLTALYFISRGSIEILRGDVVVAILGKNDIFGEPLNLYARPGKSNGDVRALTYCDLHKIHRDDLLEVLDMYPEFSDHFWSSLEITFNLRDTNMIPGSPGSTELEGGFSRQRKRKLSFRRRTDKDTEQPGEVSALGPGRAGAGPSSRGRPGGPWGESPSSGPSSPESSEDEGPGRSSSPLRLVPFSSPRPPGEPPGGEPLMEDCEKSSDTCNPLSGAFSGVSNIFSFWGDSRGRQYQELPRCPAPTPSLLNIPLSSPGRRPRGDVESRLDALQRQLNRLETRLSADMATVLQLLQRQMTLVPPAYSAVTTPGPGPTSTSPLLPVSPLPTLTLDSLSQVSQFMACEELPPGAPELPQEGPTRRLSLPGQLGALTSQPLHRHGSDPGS
Ephrin type-B receptor 2 (Homo sapiens), sequence (P29323 whole entry, the tested form may be a part): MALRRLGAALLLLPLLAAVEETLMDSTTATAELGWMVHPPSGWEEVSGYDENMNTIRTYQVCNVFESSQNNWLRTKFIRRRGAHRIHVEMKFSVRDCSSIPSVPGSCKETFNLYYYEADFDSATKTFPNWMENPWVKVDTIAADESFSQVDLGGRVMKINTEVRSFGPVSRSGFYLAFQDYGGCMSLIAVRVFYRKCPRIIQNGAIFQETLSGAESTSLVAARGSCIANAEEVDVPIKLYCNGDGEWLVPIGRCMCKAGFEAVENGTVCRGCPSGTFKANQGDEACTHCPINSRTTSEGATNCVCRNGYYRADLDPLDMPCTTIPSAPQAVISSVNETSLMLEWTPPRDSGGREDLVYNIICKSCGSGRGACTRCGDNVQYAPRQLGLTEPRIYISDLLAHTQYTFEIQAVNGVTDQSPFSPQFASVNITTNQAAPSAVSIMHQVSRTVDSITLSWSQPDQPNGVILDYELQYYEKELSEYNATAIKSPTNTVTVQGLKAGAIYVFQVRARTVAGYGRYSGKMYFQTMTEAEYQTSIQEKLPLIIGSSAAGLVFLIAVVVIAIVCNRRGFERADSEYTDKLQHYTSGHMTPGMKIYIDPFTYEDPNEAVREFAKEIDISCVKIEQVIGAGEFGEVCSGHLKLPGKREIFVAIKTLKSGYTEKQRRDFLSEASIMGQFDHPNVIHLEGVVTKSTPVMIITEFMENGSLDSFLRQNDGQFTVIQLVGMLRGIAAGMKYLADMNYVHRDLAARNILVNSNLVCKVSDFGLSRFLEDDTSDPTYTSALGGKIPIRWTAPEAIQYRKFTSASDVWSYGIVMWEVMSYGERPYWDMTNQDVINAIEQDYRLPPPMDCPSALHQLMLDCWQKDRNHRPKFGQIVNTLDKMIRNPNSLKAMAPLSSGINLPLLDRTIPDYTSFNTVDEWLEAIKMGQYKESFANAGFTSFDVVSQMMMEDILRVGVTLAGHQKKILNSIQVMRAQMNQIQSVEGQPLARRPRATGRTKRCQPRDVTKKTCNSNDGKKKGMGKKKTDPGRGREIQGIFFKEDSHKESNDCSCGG
Mitogen-activated protein kinase kinase kinase 1 (Homo sapiens), sequence (Q13233 whole entry, the tested form may be a part): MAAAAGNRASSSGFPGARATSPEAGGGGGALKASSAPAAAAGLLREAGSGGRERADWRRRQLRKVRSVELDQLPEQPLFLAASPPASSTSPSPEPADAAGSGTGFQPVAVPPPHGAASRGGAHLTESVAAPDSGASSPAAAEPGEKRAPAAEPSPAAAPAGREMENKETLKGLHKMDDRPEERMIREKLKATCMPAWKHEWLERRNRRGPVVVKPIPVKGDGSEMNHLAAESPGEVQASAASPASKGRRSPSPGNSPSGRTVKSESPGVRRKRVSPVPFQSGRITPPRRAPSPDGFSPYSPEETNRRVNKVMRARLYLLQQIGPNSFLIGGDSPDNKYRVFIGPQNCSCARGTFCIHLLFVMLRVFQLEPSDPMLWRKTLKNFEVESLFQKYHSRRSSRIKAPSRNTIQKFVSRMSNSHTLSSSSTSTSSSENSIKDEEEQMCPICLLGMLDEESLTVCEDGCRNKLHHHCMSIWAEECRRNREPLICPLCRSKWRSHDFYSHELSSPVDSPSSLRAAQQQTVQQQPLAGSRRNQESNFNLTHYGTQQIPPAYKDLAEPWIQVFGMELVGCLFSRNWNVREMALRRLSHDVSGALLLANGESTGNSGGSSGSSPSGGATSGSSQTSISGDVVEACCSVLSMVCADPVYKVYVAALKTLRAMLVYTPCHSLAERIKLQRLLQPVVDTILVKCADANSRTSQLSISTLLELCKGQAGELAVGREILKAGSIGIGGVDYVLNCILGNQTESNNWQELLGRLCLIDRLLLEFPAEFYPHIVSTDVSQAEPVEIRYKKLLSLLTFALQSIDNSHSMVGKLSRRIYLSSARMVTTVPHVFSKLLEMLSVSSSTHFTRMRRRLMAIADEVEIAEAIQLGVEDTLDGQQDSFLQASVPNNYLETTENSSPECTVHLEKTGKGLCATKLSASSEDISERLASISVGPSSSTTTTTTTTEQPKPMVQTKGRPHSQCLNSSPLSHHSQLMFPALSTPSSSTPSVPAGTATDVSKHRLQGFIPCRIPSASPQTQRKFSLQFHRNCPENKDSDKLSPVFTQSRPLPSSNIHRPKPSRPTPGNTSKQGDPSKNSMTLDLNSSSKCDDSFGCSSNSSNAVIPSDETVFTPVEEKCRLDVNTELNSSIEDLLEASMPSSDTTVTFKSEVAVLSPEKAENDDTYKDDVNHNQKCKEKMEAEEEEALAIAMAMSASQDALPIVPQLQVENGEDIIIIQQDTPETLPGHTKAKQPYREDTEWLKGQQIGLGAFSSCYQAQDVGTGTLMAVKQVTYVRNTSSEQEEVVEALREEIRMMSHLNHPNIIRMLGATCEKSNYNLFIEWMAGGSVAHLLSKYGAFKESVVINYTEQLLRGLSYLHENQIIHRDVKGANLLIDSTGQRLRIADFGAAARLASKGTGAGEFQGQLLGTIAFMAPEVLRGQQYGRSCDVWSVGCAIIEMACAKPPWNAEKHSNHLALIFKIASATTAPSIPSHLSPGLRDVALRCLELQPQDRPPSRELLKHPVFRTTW
Myosin light chain kinase family member 4 (Homo sapiens), sequence (Q86YV6 whole entry, the tested form may be a part): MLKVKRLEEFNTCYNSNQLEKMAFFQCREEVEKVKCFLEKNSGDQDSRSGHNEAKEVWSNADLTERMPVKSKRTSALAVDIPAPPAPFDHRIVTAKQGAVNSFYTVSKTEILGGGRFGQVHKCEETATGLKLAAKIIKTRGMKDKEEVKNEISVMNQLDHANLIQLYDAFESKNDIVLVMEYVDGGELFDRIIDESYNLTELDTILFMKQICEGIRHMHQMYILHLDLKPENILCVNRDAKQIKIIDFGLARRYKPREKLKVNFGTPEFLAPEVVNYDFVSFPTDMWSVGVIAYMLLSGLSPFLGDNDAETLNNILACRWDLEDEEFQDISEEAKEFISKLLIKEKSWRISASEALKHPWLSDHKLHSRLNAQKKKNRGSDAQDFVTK
Tyrosine-protein kinase Lyn (Homo sapiens), sequence (P07948 2-512 limits assumed): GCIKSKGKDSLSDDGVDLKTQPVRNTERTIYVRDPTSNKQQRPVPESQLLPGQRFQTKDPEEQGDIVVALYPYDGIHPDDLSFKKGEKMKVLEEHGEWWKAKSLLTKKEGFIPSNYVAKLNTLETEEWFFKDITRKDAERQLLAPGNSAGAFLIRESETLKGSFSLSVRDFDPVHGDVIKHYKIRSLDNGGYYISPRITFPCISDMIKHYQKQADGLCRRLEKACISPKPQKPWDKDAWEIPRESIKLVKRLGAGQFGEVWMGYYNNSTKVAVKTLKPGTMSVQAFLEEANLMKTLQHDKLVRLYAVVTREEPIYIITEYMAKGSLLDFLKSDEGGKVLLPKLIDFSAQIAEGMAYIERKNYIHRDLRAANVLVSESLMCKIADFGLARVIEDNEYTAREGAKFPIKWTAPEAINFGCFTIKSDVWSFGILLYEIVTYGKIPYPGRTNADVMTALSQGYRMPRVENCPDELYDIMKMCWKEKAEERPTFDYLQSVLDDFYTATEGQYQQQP
Nuclear receptor subfamily 1 group I member 2, sequence (O75469 whole entry): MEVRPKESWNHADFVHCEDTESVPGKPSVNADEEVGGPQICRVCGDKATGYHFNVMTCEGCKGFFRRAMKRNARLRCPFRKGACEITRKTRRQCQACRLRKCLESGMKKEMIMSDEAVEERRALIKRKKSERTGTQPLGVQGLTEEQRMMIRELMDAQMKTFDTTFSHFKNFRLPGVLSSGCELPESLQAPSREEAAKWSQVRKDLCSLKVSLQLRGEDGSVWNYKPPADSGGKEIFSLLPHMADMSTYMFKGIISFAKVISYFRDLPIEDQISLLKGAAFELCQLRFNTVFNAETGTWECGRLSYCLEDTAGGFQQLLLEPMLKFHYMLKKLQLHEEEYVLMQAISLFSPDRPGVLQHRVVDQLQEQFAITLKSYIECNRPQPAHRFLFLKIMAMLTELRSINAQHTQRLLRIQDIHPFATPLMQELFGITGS

SMILES: COc1ccc(-c2cc3c(N[C@@H]4CC[C@](C)(N)C4(C)C)c(C(N)=O)cnn3c2)cn1
- Ratio IC50 [1]: 130
- IC50 [2]: 3 µM
- IC50 (Cytochrome P450 3A4): 11 µM
- remaining at 10 min [3]: 95%
- fraction unbound [4]: 0.07
- Cmax [5]: 1100 nM
- concentration at 24 h [6]: 300 nM
- EC50 [7]: > 17 µM
- inhibition (Homo sapiens): 16%
- fraction unbound [8]: 0.12
- solubility [9]: 79 µg/mL (≈ 193 µM)
- Cmax [10]: 1100 nM
- bioavailability [11]: 73%
- AUC [12]: 4.9 µM·h
- half-life [13]: 6.5 h
- Tmax [14]: 7.3 h
- AUC [15]: 12.9 µM·h
- clearance [16]: 14.1 mL/min/kg
- Activity (Oryctolagus cuniculus): Toxic
- Activity (Rattus norvegicus [17]): 14%
- Activity (Rattus norvegicus [18]): Toxic
- IC50 [19]: 0.095 µM
- Activity [20]: 100%
- Activity [21]: 98%
- Activity [22]: 94%
- Activity [23]: 87%
- Activity [24]: 84%
- Activity [25]: 100%
- Activity [26]: 100%
- Activity [27]: 90%
- Activity [28]: 97%
- Activity [29]: 87%
- Activity [30]: 93%

SMILES: CC1(C)[C@H](Nc2c(C(N)=O)cnn3cc(-c4ccccc4)cc23)CC[C@]1(C)N
- bioavailability [31]: 67%
- CL (Mus musculus [32]): 32%
- clearance [33]: 29 mL/min/kg
- concentration at 24 h [34]: 230 nM
- Activity (Mus musculus [35]): inactive
- concentration at 24 h [36]: 60 nM
- Activity (Mus musculus [37]): Active
- Activity (Mus musculus [38]): inactive
- Activity (Mus musculus [39]): Toxic
- Activity [40]: 95%
- fraction unbound [41]: 0.52
